Source: ChEMBL document CHEMBL1201862, “PubChem BioAssay data set” (2004)
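Following 48 hours of exposure in 96-well plates, responses at five concentrations were used to interpolate endpoints linearly. Abbreviation: GI50, concentration required for 50% inhibition of growth.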 The source made the active and inactive calls. Rule as the data show it: active = GI50 up to about 1.1 µM and inactive = higher.

What was measured:
Test in all cases: inhibition of tumour cell growth, NCI panel, 48 h
KM12 = system: KM12
786-0 = system: 786-0
HCT-15 = system: HCT-15
T47D = system: T47D
CCRF-CEM = system: CCRF-CEM
SK-MEL-5 = system: SK-MEL-5
NCI-H23 = system: NCI-H23
SF-268 = system: SF-268
CAKI-1 = system: CAKI-1
OVCAR-8 = system: OVCAR-8
UACC-62 = system: UACC-62
SF-295 = system: SF-295
K562 = system: K562
MDA-MB-435 = system: MDA-MB-435
SN12C = system: SN12C
BT-549 = system: BT-549
LOX IMVI = system: LOX IMVI
NCI/ADR-RES = system: NCI/ADR-RES
Hs-578T = system: Hs-578T

Row | SMILES | GI50 (KM12) | GI50 (786-0) | GI50 (HCT-15) [µM] | GI50 (T47D) | GI50 (CCRF-CEM) | GI50 (SK-MEL-5) | GI50 (NCI-H23) | GI50 (SF-268) | GI50 (CAKI-1) | GI50 (OVCAR-8) | GI50 (UACC-62) | GI50 (SF-295) | GI50 (K562) | GI50 (MDA-MB-435) | GI50 (SN12C) | GI50 (BT-549) | GI50 (LOX IMVI) | GI50 (NCI/ADR-RES) | GI50 (Hs-578T)
1 | C=C(Cl)C(Cl)(CCl)CCC(Br)C(C)(C)Br (stereo not given) | > 10 µM (inactive) | > 10 µM (inactive) | > 10 | > 10 µM (inactive) | > 10 µM (inactive) | > 10 µM (inactive) | > 10 µM (inactive) | > 10 µM (inactive) | > 10 µM (inactive) | > 10 µM (inactive) | > 10 µM (inactive) | > 10 µM (inactive) | > 10 µM (inactive) | > 10 µM (inactive) | > 10 µM (inactive) | > 10 µM (inactive) | – | – | –
2 | CN(C)C(=O)Oc1c(-c2ccccc2)c(=O)n2c3ccccc3n3c(=O)n(C)c(=O)c1c23 | > 10 µM (inactive) | > 100 µM (inactive) | > 100 | – | – | > 100 µM (inactive) | > 100 µM (inactive) | > 100 µM (inactive) | > 100 µM (inactive) | > 100 µM (inactive) | > 100 µM (inactive) | > 100 µM (inactive) | – | – | > 100 µM (inactive) | – | > 100 µM (inactive) | – | –
3 | C=C(C)C#CC(O)(C(=O)OC1CCN(C)CC1)C(C)C (stereo not given) | > 100 µM (inactive) | > 100 µM (inactive) | > 100 | > 100 µM (inactive) | > 100 µM (inactive) | > 100 µM (inactive) | > 100 µM (inactive) | > 100 µM (inactive) | > 100 µM (inactive) | > 100 µM (inactive) | > 100 µM (inactive) | > 100 µM (inactive) | > 100 µM (inactive) | > 100 µM (inactive) | > 100 µM (inactive) | – | > 100 µM (inactive) | 29.4 µM (inactive) | –
4 | CCN(C(=O)N[C@@H](CC(C)C)C(=O)NCC(=O)OC)c1ccccc1 | > 100 µM (inactive) | > 100 µM (inactive) | > 100 | > 100 µM (inactive) | > 100 µM (inactive) | 75.5 µM (inactive) | > 100 µM (inactive) | – | > 100 µM (inactive) | > 100 µM (inactive) | 30.8 µM (inactive) | > 100 µM (inactive) | 38.4 µM (inactive) | > 100 µM (inactive) | > 100 µM (inactive) | > 100 µM (inactive) | 44.3 µM (inactive) | > 100 µM (inactive) | –
5 | O=C1CC[C@@]23CC(=O)O[C@@H]2CCCC3C1 (stereo not given in full) | > 100 µM (inactive) | > 100 µM (inactive) | > 100 | > 100 µM (inactive) | > 100 µM (inactive) | > 100 µM (inactive) | > 100 µM (inactive) | > 100 µM (inactive) | > 100 µM (inactive) | > 100 µM (inactive) | > 100 µM (inactive) | > 100 µM (inactive) | > 100 µM (inactive) | – | > 100 µM (inactive) | > 100 µM (inactive) | > 100 µM (inactive) | > 100 µM (inactive) | > 100 µM (inactive)
6 | Cn1c2c(c3ccccc31)C1CCCCCCC1C1C(=O)OC(=O)C21 (stereo not given) | 38.9 µM (inactive) | > 100 µM (inactive) | 30.2 | – | 24.3 µM (inactive) | 35.2 µM (inactive) | 69.7 µM (inactive) | 45.2 µM (inactive) | – | 31.9 µM (inactive) | 59.6 µM (inactive) | 35.2 µM (inactive) | 31.3 µM (inactive) | – | 39.5 µM (inactive) | – | 22.8 µM (inactive) | – | –
7 | COc1ccc(CNc2cnc3ccc(N)cc3n2)cc1OC | > 100 µM (inactive) | > 100 µM (inactive) | > 100 | – | > 100 µM (inactive) | > 100 µM (inactive) | > 100 µM (inactive) | > 100 µM (inactive) | > 100 µM (inactive) | > 100 µM (inactive) | – | > 100 µM (inactive) | > 100 µM (inactive) | – | > 100 µM (inactive) | – | > 100 µM (inactive) | – | –
8 | Cc1ccc(S(=O)(=O)Nn2c(O)c(C#N)c(-c3ccc(Cl)cc3)c(C#N)c2=O)cc1 | > 100 µM (inactive) | > 100 µM (inactive) | > 100 | – | > 100 µM (inactive) | > 100 µM (inactive) | – | > 100 µM (inactive) | > 100 µM (inactive) | > 100 µM (inactive) | > 100 µM (inactive) | > 100 µM (inactive) | > 100 µM (inactive) | > 100 µM (inactive) | > 100 µM (inactive) | > 100 µM (inactive) | > 100 µM (inactive) | > 100 µM (inactive) | 74.3 µM (inactive)
9 | Oc1cccc(-c2cc(=S)ss2)c1 | 18.6 µM (inactive) | 19.7 µM (inactive) | 15.1 | – | – | 5.97 µM (inactive) | 8.79 µM (inactive) | 16.9 µM (inactive) | 18.2 µM (inactive) | 17.7 µM (inactive) | 18.5 µM (inactive) | 14.3 µM (inactive) | 8.57 µM (inactive) | 20.5 µM (inactive) | 20.2 µM (inactive) | 16.7 µM (inactive) | 14.8 µM (inactive) | 17.5 µM (inactive) | 16.3 µM (inactive)
